According to patent publication US9844549B2, “2-aminothiazole derivative or salt thereof” (ASTELLAS PHARMA INC., priority 2014, dated 2017):
Where a name gives a salt, the structure may show the parent alone.

System: anesthetized rats
Assay: Effect on pelvic nerve stimulation-induced elevation of intravesical pressure in anesthetized rats
Type: in vivo
Conditions: Rattus norvegicus; 3 mg/kg intravenous; maximum effect within one hour; AUC, pre-treatment = 100%; SD female rats; read-out: Increase rate of intravesical pressure (% of pre)
Description: Test Example 3: Effect on Pelvic Nerve Stimulation-Induced Elevation of Intravesical Pressure in Anesthetized Rats
The effect of the Example compounds of the present invention in the pelvic nerve electrical stimulation-induced elevation of intravesical pressure using rats as an action of nerve stimulation-dependent bladder contraction in vivo was measured by the following method. That is, SD female rats (Japan SLC, Inc.) were used and its lower abdomen was dissected at the midline under pentobarbital anesthesia (50 mg/kg ip). After ligating and cutting the ureter on both sides, a cannula (PE-50) for measuring the intravesical pressure was inserted into the bladder from the external urethral opening and fixed by a clip. After injecting about 200 μL of saline through the cannula that had been inserted into the bladder, the other side was connected to a pressure transducer to measure the intravesical pressure. Under a stereoscopic microscope observation, the pelvic nerve in the vicinity of the bladder was peeled and an electrode for nerve stimulation (unique Medical) was placed. The abdominal cavity was filled with mineral oil (MP BIOMEDICALS). After placing in a post-operative stabilization period, the pelvic nerve was subjected to electrical stimulation (stimulation voltage: 10 V, stimulation frequency: 8 Hz, pulse width: 0.3 msec, and stimulation time: 10 seconds) to elicit the elevation of intravesical pressure, using an electrical stimulator (Nihon Kohden). By repeating the electrical stimulation at an interval of 2 minutes while adjusting the voltage, the voltage was adjusted to elicit about 50% to 70% elevation of intravesical pressure elicited at 10 V. Thereafter, by repeating the electrical stimulation at an interval of 10 minutes, the increase in the intravesical pressure by electrical stimulation was stabilized three times or more, and the test substance (an administration amount of 3 mg/kg) was then administered from the catheter detained in the vein at a volume of 1 mL/kg, thus measuring an effect of the elevation of the intravesical pressure of the test substance for 1 hour. The test substance was dissolved in water supplemented with 10% DMSO and 10% Cremophor.
The response was applied to a personal computer through a PowerLab (registered trademark) and analyzed by LabChart (registered trademark). The AUC of each elevation of the intravesical pressure was calculated, the intravesical pressure elevation rate (% of pre) after the treatment with the test substance was calculated by taking an average value of the values measured three times before the treatment with the test substance as 100%, and the maximum effect during a period within one hour after administration of the compound was considered as the effect of the test substance.

## COC1(C(=O)O)CCN(c2ncnc(Nc3nc(-c4cc(F)cc(C(F)(F)F)c4)c(CN4[C@H](C)CC[C@H]4C)s3)c2F)CC1 [Example 54]
  response vs control in vivo at 3 mg/kg: 150%

## CC[C@@H]1CCCN1Cc1sc(Nc2ncnc(N3CCN(CCC(=O)O)[C@H](COC)C3)c2F)nc1-c1cc(F)cc(C(F)(F)F)c1 [Example 70]
  response vs control in vivo at 3 mg/kg: 151%

## C[C@@H]1CCCN1Cc1sc(Nc2ncnc(N3CCN(CCC(=O)O)[C@@H](C)C3)c2F)nc1-c1ccc(Cl)c(C(F)(F)F)c1 [Example 35]
  response vs control in vivo at 3 mg/kg: 154%

## COC1CCN(c2sc(Nc3cc(N4CCN(CCC(=O)O)CC4)nc(C)n3)nc2-c2cc(F)cc(C(F)(F)F)c2)CC1 [Example 27]
  response vs control in vivo at 3 mg/kg: 123%

## C[C@@H]1CCCN1Cc1sc(Nc2ncnc(N3CCN(CCC(=O)O)[C@H](CF)C3)c2F)nc1-c1ccc(Cl)c(C(F)(F)F)c1 [Example 59]
  response vs control in vivo at 3 mg/kg: 225%

## Cc1nc(Nc2nc(-c3cc(F)cc(C(F)(F)F)c3)c(CN3CCC[C@H]3C)s2)cc(N2CCN(CCC(=O)O)[C@H](C)C2)n1 [Example 21]
  response vs control in vivo at 3 mg/kg: 116%

## C[C@@H]1CCCN1Cc1sc(Nc2nccc(N3CCN(CCC(=O)O)CC3)c2F)nc1-c1cc(F)cc(C(F)(F)F)c1 [Example 5, 3-(4-{3-fluoro-2-[(4-[3-fluoro-5-(trifluoromethyl)phenyl]-5-{[(2R)-2-methylpyrrolidin-1-yl]methyl}-1,3-thiazol-2-yl)amino]pyridin-4-yl}piperazin-1-yl)propanoic acid trihydrochloride]
  response vs control in vivo at 3 mg/kg: 146%

## C[C@@H]1CCCN1Cc1sc(Nc2ncnc(N3CC[C@H](N(C)CCC(=O)O)C3)c2F)nc1-c1ccc(Cl)c(C(F)(F)F)c1 [Example 53]
  response vs control in vivo at 3 mg/kg: 145%

## COc1c(F)cc(-c2nc(Nc3cc(N4CCN(CCC(=O)O)CC4)ncn3)sc2CN2CCC[C@H]2C)cc1C(F)(F)F [Example 94]
  response vs control in vivo at 3 mg/kg: 114%

## C[C@@H]1CCCN1Cc1sc(Nc2cc(N3CCN(CCC(=O)O)CC3)ncn2)nc1-c1cc(Cl)cc(C(F)(F)F)c1 [Example 92]
  response vs control in vivo at 3 mg/kg: 105%

## Cc1nc(Nc2nc(-c3cc(F)cc(C(F)(F)F)c3)c(CN3CCC[C@H]3C)s2)cc(N2CCN(CC(=O)O)CC2)n1 [Example 16]
  response vs control in vivo at 3 mg/kg: 111%

## CC[C@@H]1CCCN1Cc1sc(Nc2nc(C)nc(N3CCN(CCC(=O)O)CC3)c2F)nc1-c1cc(F)cc(C(F)(F)F)c1 [Example 38]
  response vs control in vivo at 3 mg/kg: 142%

## CC[C@@H]1CCCN1Cc1sc(Nc2ncnc(N3CCN(CCC(=O)O)[C@H](COC)C3)c2F)nc1-c1cc(Cl)cc(C(F)(F)F)c1 [Example 71]
  response vs control in vivo at 3 mg/kg: 197%

## C[C@@H]1CC[C@@H](C)N1Cc1sc(Nc2ncnc(N3CCN(CCC(=O)O)CC3)c2F)nc1-c1cc(Cl)cc(C(F)(F)F)c1 [Example 40]
  response vs control in vivo at 3 mg/kg: 212%

## C[C@@H]1CC[C@@H](C)N1Cc1sc(Nc2nccc(N3CCN(CCC(=O)O)CC3)c2F)nc1-c1cc(F)cc(C(F)(F)F)c1 [Example 100]
  response vs control in vivo at 3 mg/kg: 145%

## Cc1nc(Nc2nc(-c3cc(F)cc(C(F)(F)F)c3)c(CN3[C@H](C)CC[C@H]3C)s2)cc(N2CCN(CCC(=O)O)CC2)n1 [Example 99]
  response vs control in vivo at 3 mg/kg: 121%

## C[C@@H]1CCCN1Cc1sc(Nc2ncnc(N3CCN(CCC(=O)O)CC3)c2F)nc1-c1cc(Cl)cc(OC(F)(F)F)c1 [Example 51]
  response vs control in vivo at 3 mg/kg: 129%

## C[C@@H]1CN(c2cc(Nc3nc(-c4cc(F)cc(C(F)(F)F)c4)c(CN4CCC[C@H]4C)s3)ncn2)CCN1CCC(=O)O [Example 20]
  response vs control in vivo at 3 mg/kg: 118%

## C[C@@H]1CCCN1Cc1sc(Nc2ncnc(N3CCN(CCC(=O)O)C(CF)C3)c2F)nc1-c1cc(F)cc(C(F)(F)F)c1 (some centres unmarked) [Example 45]
  response vs control in vivo at 3 mg/kg: 182%

## C[C@@H]1CCCN1Cc1sc(Nc2ncnc(N3CCN(CCC(=O)O)[C@@H](CO)C3)c2F)nc1-c1cc(F)cc(C(F)(F)F)c1 [Example 86]
  response vs control in vivo at 3 mg/kg: 164%

## C[C@@H]1CCCCN1Cc1sc(Nc2ncnc(N3CCN(CCC(=O)O)CC3)c2F)nc1-c1cc(Cl)cc(C(F)(F)F)c1 [Example 43]
  response vs control in vivo at 3 mg/kg: 177%

## C[C@@H]1CCCN1Cc1sc(Nc2ncnc(N3CCC(OCC(=O)O)CC3)c2F)nc1-c1cc(Cl)cc(C(F)(F)F)c1 [Example 67]
  response vs control in vivo at 3 mg/kg: 169%

## CC[C@@H]1CCCN1Cc1sc(Nc2ncnc(N3CCN(CCC(=O)O)CC3)c2F)nc1-c1cc(Cl)cc(C(F)(F)F)c1 [Example 63]
  response vs control in vivo at 3 mg/kg: 198%

## C[C@@H]1CC[C@@H](C)N1Cc1sc(Nc2ncnc(N3CCN(CCC(=O)O)CC3)c2F)nc1-c1ccc(Cl)c(C(F)(F)F)c1 [Example 36]
  response vs control in vivo at 3 mg/kg: 191%

## Cc1nc(Nc2nc(-c3cc(F)cc(C(F)(F)F)c3)c(CN(C)C(C)C)s2)c(F)c(N2CCN(CCC(=O)O)CC2)n1 [Example 98]
  response vs control in vivo at 3 mg/kg: 139%

## C[C@@H]1CCCN1Cc1sc(Nc2ncnc(N3CCN(CCC(=O)O)[C@H](CF)C3)c2F)nc1-c1cc(F)cc(C(F)(F)F)c1 [Example 58]
  response vs control in vivo at 3 mg/kg: 175%

## Cc1nc(Nc2nc(-c3cc(F)cc(C(F)(F)F)c3)c(CN3CCC[C@H]3C)s2)cc(N2CCC(OCC(=O)O)CC2)n1 [Example 30]
  response vs control in vivo at 3 mg/kg: 124%

## C[C@@H]1CCCN1Cc1sc(Nc2nccc(N3CCN(CCC(=O)O)CC3)c2F)nc1-c1ccc(Cl)c(C(F)(F)F)c1 [Example 2, sodium 3-(4-{2-[(4-[4-chloro-3-(trifluoromethyl)phenyl]-5-{[(2R)-2-methylpyrrolidin-1-yl]methyl}-1,3-thiazol-2-yl)amino]-3-fluoropyridin-4-yl}piperazin-1-yl)propanoate]
  response vs control in vivo at 3 mg/kg: 143%

## C[C@@H]1CCCN1Cc1sc(Nc2ncnc(N3CC[C@H](N(C)CCC(=O)O)C3)c2F)nc1-c1cc(F)cc(C(F)(F)F)c1 [Example 34]
  response vs control in vivo at 3 mg/kg: 159%

## C[C@@H]1CCCN1Cc1sc(Nc2ncnc(N3CCN(CC(=O)O)CC3)c2F)nc1-c1cc(Cl)cc(C(F)(F)F)c1 [Example 77]
  response vs control in vivo at 3 mg/kg: 140%

## C[C@@H]1CCCN1Cc1sc(Nc2ncnc(N3CCN(CCC(=O)O)[C@@H](C)C3)c2F)nc1-c1cc(F)cc(C(F)(F)F)c1 [Example 31]
  response vs control in vivo at 3 mg/kg: 138%

## CO[C@H]1CCCN(c2sc(Nc3ncnc(N4CCN(CCC(=O)O)CC4)c3F)nc2-c2ccc(Cl)c(C(F)(F)F)c2)C1 [Example 32]
  response vs control in vivo at 3 mg/kg: 232%

## COC[C@H]1CN(c2ncnc(Nc3nc(-c4ccc(Cl)c(C(F)(F)F)c4)c(CN4CCC[C@H]4C)s3)c2F)CCN1CCC(=O)O [Example 55]
  response vs control in vivo at 3 mg/kg: 189%

## C[C@@H]1CC[C@@H](C)N1Cc1sc(Nc2ncnc(N3CCC(OCC(=O)O)CC3)c2F)nc1-c1cc(Cl)cc(C(F)(F)F)c1 [Example 68]
  response vs control in vivo at 3 mg/kg: 172%

## CN(Cc1sc(Nc2ncnc(N3CCN(CCC(=O)O)CC3)c2F)nc1-c1cc(F)cc(C(F)(F)F)c1)CC1CC1 [Example 29]
  response vs control in vivo at 3 mg/kg: 145%

## C[C@@H]1CC[C@@H](C)N1Cc1sc(Nc2ncnc(N3CC[C@H](N(C)CCC(=O)O)C3)c2F)nc1-c1cc(Cl)cc(C(F)(F)F)c1 [Example 65]
  response vs control in vivo at 3 mg/kg: 174%

## Cc1nc(Nc2nc(-c3cc(F)cc(C(F)(F)F)c3)c(CN3CCC[C@H]3C)s2)cc(N2CCN(CCC(=O)O)[C@@H](C)C2)n1 [Example 15]
  response vs control in vivo at 3 mg/kg: 130%

## CC[C@@H]1CCCN1Cc1sc(Nc2ncnc(N3CC[C@H](N(C)CCC(=O)O)C3)c2F)nc1-c1cc(Cl)cc(C(F)(F)F)c1 [Example 69]
  response vs control in vivo at 3 mg/kg: 150%
